# Measurements: patent publication US7332623B2 (Kaohsiung Medical University, priority 2003, dated 2008)
# Legend:
# KB cell = settings: Table 1; cited from earlier work
# Hep2,2,15 = settings: Hep2,2,15, Table 1; cited from earlier work
# [1] = tested on: DLD (DLD-1): human colon adenocarcinoma; assay: In vitro anticancer assay (cytotoxicity), solid tumor cells
# [2] = tested on: NCI (NCI-H661): human lung large cell carcinoma; assay: as above
smiles,measurement,setting,value
"N#Cc1ccccc1C#C/C=C\C#CCCCOC1CCCCO1 (stereo not shown) [Compound 2, 2-(9-(Tetrahydropyranyloxy)-3(Z)-nonen-1,5-diynyl)-benzonitrile]",IC50,KB cell,< 0.01 µM
same,IC50,"Hep2,2,15",> 10 µM
same,IC50 Values of Cytotoxicities,[1],— (“—” means IC50 > 20 μg/ml)
same,IC50 Values of Cytotoxicities,[2],— (“—” means IC50 > 20 μg/ml)
